From patent US7193127B1, “Codeinone reductase from alkaloid poppy” (priority 1999, dated 2007)
“Also recorded” adds a separate entry of the source. Where two headings read alike, the source gives them in different places.

Legend:
[1] = system: codeinone reductase isoforms; format: biochemical, Papaver somniferum; conditions: for serves as substrate in the reductive reaction: NADPH as cofactor, physiologically forward reaction
Procedure: The two other potential substrates for reduction, the 1,2-dehydroreticulinium ion and salutaridine (FIG. 1), or for the physiologically reverse reaction, salutaridinol and (R)-reticuline, were tested as substrates; with the codeinone reductase isoforms.
In order to test for a functional evolutionary relationship between isoflavonoid and alkaloid anabolism, codeinone reductase was analyzed for the ability to substitute for the reductase in the formation of 6-deoxychalcone in co-action with either native chalcone synthase or native stilbene synthase from Pinus sylvestris.

[2] = system: COc1ccc2c3c1O[C@H]1C(=O)C=C[C@H]4[C@@H](C2)N(C)CC[C@]314; assay: cells, lysate or membranes named
Procedure: (§1) The four codeinone reductase isoform-calmodulin-binding peptide fusion proteins were purified from E. coli lysates in one step with a calmodulin affinity column.
(§2) For all isoforms, the temperature optimum for reduction (physiologically forward reaction) was 28° C., for oxidation (physiologically reverse reaction) was 30° C., the pH optimum for reduction was 6.8 and for oxidation was 9.0.
(§3) For enzyme assays, single colonies were picked and grown in 3 ml Luria-Bertani medium containing 100 μg/ml ampicillin at 37° C. to an OD590 of 0.8. For protein purification, single colonies were picked and grown in 1 l Luria-Bertani medium containing 100 μg/ml ampicillin at 37° C. to an OD590 of 1.8. […] The bacterial pellet from a 3 ml culture was resuspended in 0.5 ml buffer and that from a one liter culture in 100 ml buffer. The cells were ruptured by sonication.

[3] = biological target: T1, reductase of the 6′-deoxychalcone synthase complex (Glycine max, UniProt P26690); assay: Codeinone/codeine conversion by the reductase of the 6'-deoxychalcone synthase complex; format: biochemical, soybean; conditions: in the presence of NADPH
T1 sequence (P26690 1-315): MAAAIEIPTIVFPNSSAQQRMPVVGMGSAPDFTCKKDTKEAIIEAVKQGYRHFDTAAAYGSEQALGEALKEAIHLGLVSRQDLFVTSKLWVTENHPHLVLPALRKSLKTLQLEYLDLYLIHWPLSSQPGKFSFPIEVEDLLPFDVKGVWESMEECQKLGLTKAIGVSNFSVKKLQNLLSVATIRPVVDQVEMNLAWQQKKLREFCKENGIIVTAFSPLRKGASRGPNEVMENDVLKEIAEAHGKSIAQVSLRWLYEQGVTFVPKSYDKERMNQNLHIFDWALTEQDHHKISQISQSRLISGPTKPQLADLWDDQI

COR1.3 = COR1.3 (Papaver somniferum, UniProt Q9SQ68); assay: Km determination with purified recombinant codeinone reductase isoform COR1.3
Sequence of COR1.3 (Q9SQ68 whole entry, canonical isoform): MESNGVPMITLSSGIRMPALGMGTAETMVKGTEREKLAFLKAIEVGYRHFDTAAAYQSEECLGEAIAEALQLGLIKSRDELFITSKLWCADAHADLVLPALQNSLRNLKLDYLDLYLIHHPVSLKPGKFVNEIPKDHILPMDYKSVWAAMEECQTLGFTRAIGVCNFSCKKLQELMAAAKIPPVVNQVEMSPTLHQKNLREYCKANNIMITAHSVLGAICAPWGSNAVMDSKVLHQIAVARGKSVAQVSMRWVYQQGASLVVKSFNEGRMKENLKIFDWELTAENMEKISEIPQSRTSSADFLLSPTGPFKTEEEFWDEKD
Procedure: as §1, §2, §3

COR1.2 = COR1.2 (Papaver somniferum, UniProt Q9SQ69); assay: Km determination with purified recombinant codeinone reductase isoform COR1.2
Sequence of COR1.2 (Q9SQ69 whole entry, canonical isoform): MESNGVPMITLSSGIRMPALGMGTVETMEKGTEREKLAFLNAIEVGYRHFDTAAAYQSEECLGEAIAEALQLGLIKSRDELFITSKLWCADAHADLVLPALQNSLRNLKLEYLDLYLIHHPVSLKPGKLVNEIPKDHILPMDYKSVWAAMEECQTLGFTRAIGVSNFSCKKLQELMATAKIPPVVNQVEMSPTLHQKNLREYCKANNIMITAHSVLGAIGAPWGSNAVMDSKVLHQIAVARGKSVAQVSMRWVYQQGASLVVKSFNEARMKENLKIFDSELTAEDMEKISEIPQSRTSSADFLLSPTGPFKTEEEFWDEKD
Procedure: as §1, §2, §3

[4] = analogs and aldo/keto reductase family substrates, direction not given
[5] = NADP as cofactor, physiologically reverse reaction

Molecule: CN1CC[C@]23c4c5ccc(O)c4O[C@H]2C(=O)C=C[C@H]3[C@H]1C5 [morphinone]
- serves as substrate in the reductive reaction [1]: functions; also recorded: able to reduce

Molecule: COR1.2 (Papaver somniferum)
- Km [2]: 62 µM

Molecule: CC(C)CCC[C@@H](C)[C@H]1CC[C@H]2[C@@H]3CC[C@H]4C[C@@H](O)CC[C@]4(C)[C@H]3CC[C@]12C [5α-cholestane-3β-ol]
- transformed by codeinone reductase (tested as substrate) [1, 4]: not transformed

Molecule: O=C[C@H](O)[C@@H](O)[C@H](O)CO [D-xylose]
- transformed by codeinone reductase (tested as substrate) [1, 4]: not transformed

Molecule: COc1ccc(C[C@@H]2NCCc3cc(OC)c(O)cc32)cc1O (mixture of isomers) [(S)-norreticuline, (S) and (R)-norreticuline]
- transformed by codeinone reductase (tested as substrate) [1, 4]: inactive

Molecule: NC(=O)C1=CN([C@@H]2O[C@H](COP(=O)(O)OP(=O)(O)OC[C@H]3O[C@@H](n4cnc5c(N)ncnc54)[C@H](O)[C@@H]3O)[C@@H](O)[C@H]2O)C=CC1 [NADH]
- ability to substitute for NADPH as cofactor ([1]; any of the isoforms): could not substitute for NADPH

Molecule: COc1ccc2c3c1O[C@H]1C(=O)CC[C@H]4[C@@H](C2)N(C)CC[C@]314 [hydrocodone]
- serves as substrate in the reductive reaction [1]: functions

Molecule: COc1ccc2c3c1O[C@H]1[C@@H](O)C=C[C@H]4[C@@H](C2)NCC[C@@]341 [norcodeine]
- transformed by codeinone reductase (tested as substrate) [1]: inactive

Molecule: O=P(O)(O)OC[C@@H](O)[C@@H](O)[C@H](O)[C@@H](O)CO [D-Sorbitol-6-phosphate]
- transformed by codeinone reductase (tested as substrate) [1, 4]: not transformed

Molecule: COc1ccc2c3c1O[C@H]1[C@@H](O)CC[C@H]4[C@@H](C2)N(C)CC[C@@]341 [dihydrocodeine]
- serves as substrate in the oxidative reaction [1, 5]: functions

Molecule: CCCCC[C@H](O)/C=C/[C@H]1C(=O)C[C@H](O)[C@@H]1CCCCCCC(=O)O [prostaglandin D1]
- transformed by codeinone reductase (tested as substrate) [1, 4]: not transformed

Molecule: C[C@]12CC[C@H]3[C@@H](CC=C4C[C@@H](O)CC[C@@]43C)[C@@H]1CC[C@@H]2O [5-androstene-3β,17β-diol]
- transformed by codeinone reductase (tested as substrate) [1]: not transformed

Molecule: CN1CC[C@]23c4c5ccc(O)c4O[C@H]2[C@@H](O)C=C[C@H]3[C@H]1C5 [morphine]
- serves as substrate in the oxidative reaction [1]: functions

Molecule: O=C1CCCCC1 [cyclohexanone]
- transformed by codeinone reductase (tested as substrate) [1, 4]: not transformed

Molecule: C[C@]12CCC(=O)C[C@@H]1CC[C@@H]1[C@@H]2CC[C@]2(C)[C@@H](O)CC[C@@H]12 [5α-androstan-17β-ol-3-one]
- transformed by codeinone reductase (tested as substrate) [1]: not transformed

Molecule: COR1.3 (Papaver somniferum)
- Km [2]: 48 µM

Molecule: COc1ccc(C[C@@H]2c3cc(O)c(OC)cc3CCN2C)cc1O [(R)-reticuline]
- serves as substrate in the oxidative reaction [1, 5]: None of these alkaloids served as substrate

Molecule: COc1ccc(C[C@H]2NCCc3cc(OC)c(O)cc32)cc1O [(R)-norreticuline]
- transformed by codeinone reductase (tested as substrate) [1, 4]: inactive

Molecule: O=C1C=CCCC1 [2-cyclohexene-1-one]
- transformed by codeinone reductase (tested as substrate) [1, 4]: not transformed

Molecule: COc1ccc(CC2=[N+](C)CCc3cc(OC)c(O)cc32)cc1O [1,2-dehydroreticulinium ion]
- serves as substrate in the reductive reaction [1]: None of these alkaloids served as substrate

Molecule: COC1=C[C@]23CCN(C)[C@H](Cc4ccc(OC)c(O)c42)C3=CC1=O [salutaridine]
- serves as substrate in the reductive reaction [1]: None of these alkaloids served as substrate

Molecule: COc1ccc2c3c1O[C@H]1C(=O)C=C[C@H]4[C@@H](C2)N(C)CC[C@]314 [codeinone]
- reduction by the reductase of the 6′-deoxychalcone synthase complex [3]: could neither reduce

Molecule: COC1=C[C@]23CCN(C)[C@H](Cc4ccc(OC)c(O)c42)C3=C[C@@H]1O [salutaridinol]
- serves as substrate in the oxidative reaction [1, 5]: None of these alkaloids served as substrate

Molecule: COc1ccc(C[C@H]2c3cc(O)c(OC)cc3CCN2C)cc1O [(S)-reticuline]
- transformed by codeinone reductase (tested as substrate) [1, 4]: inactive

Molecule: NC(=O)c1ccc[n+]([C@@H]2O[C@H](COP(=O)([O-])OP(=O)(O)OC[C@H]3O[C@@H](n4cnc5c(N)ncnc54)[C@H](OP(=O)(O)O)[C@@H]3O)[C@@H](O)[C@H]2O)c1 [NADP]
- Km (COR1.3): 45 µM
- Km (COR1.2): 58 µM

Molecule: NC(=O)C1=CN([C@@H]2O[C@H](COP(=O)(O)OP(=O)(O)OC[C@H]3O[C@@H](n4cnc5c(N)ncnc54)[C@H](OP(=O)(O)O)[C@@H]3O)[C@@H](O)[C@H]2O)C=CC1 [NADPH]
- Km (COR1.2): 220 µM
